Where two headings read alike, the source gives them in different places.
Assays:
[1] = molecular target: eIF4E (Mus musculus, UniProt P63073); experiment: fluorescence anisotropy (FA) competition assay with eIF4E; type: binding; conditions: Table S2; for EC50: 25 °C, probe m^7GTP-triazol-FAM 10 nM, eIF4E 100 nM; for Kd: calculated from EC50
From the text: The KD values determined from the high-throughput assay were in qualitative agreement with data from time-synchronized fluorescence quenching titration, justifying the use of the former for evaluation of the whole set of caps. […] To additionally verify the binding affinity data (especially for 1q and 1r, as mentioned above), we determined the binding affinities for all analogs using another independent assay, based on fluorescence anisotropy. The KD data determined by this method correlated very well with the results reported above (Table S2, Figure S2).
Fractions of the compounds were independently tested using a different method based on fluorescence anisotropy (FA). These experiments were performed on a Synergy™ H1 plate reader in 96-well, black, non-binding assay plates. Each well contained appropriate buffer (50 mM HEPES/KOH pH 7.2, 100 mM KCl, 0.5 mM EDTA i 1 mM DTT), the fluorescent probe m^7GTP-triazol-FAM (10 nM), substrate (in a 2.08-fold dilution, starting from 60 μM) and protein eIF4E (100 nM). The m^7GTP-triazol-FAM was synthesized as describer earlier. All measurements were performed at 25 °C. Determined EC50 values were means ± SD of three independent experiments. The dissociation constants KD were then calculated using the equation described by Nikolovska-Coleska as described earlier.

[2] = molecular target: T1, hDcpS (Homo sapiens, UniProt Q96C86); type: in vitro ADME; conditions: 100 μM compound, 20 nM hDcpS; for hDcpS Assay: fraction of the cap remaining after 1 h incubation with DcpS: 37 °C
T1 sequence (Q96C86 1-337): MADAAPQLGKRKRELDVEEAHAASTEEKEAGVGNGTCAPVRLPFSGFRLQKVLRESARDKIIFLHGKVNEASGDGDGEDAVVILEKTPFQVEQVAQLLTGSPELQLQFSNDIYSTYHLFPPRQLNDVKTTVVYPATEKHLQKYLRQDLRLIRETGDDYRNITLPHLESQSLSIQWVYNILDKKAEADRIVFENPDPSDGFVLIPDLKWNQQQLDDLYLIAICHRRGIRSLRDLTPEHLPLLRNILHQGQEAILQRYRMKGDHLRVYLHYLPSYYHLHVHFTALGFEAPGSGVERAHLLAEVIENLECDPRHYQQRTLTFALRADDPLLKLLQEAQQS
Method: Susceptibility to decapping scavenger (DcpS) is one of the factors that could potentially influence the cellular stability of mono- and dinucleotide cap analogs designed as translational inhibitors. Therefore, we studied the susceptibility of arylmethyl-modified dinucleotides to DcpS. The compounds (at 100 μM concentration each) were incubated with 20 nM of hDcpS, and the hydrolysis progress at different time points was analyzed via RP HPLC and compared to m^7GpppG (Figure 4 and Figure S3).
The enzymatic activity of DcpS was assayed at 37 °C in 50 mM Tris∙HCl, pH 7.6 containing 200 mM KCl, 0.5 mM EDTA. DcpS cleavage assays were carried out with 100 μM of the tested compound and 20 nM (monomer) of the hDcpS. Enzymatic reaction progress was examined after 30, 60 and 180 min. As a control, a sample was examined before adding enzyme. Aliquots of 15 μL were terminated by heat inactivation of the enzyme for 3 min at 98 °C. The samples were analyzed via RP HPLC equipped with a Supelcosil LC-18-T column (4.6 × 250 mm, 5 μm, flow rate 1.3 mL/min).

[3] = test system: cap-dependent translation in rabbit reticulocyte lysate (RRL); experiment: inhibition of cap-dependent translation in rabbit reticulocyte lysate (RRL); type: biochemical
Method: After determining the affinity for eIF4E and susceptibility to DcpS, we evaluated the analogs as inhibitors of protein translation in rabbit reticulocyte lysates (RRL). To enable better assessment of how these two factors influenced inhibitory properties, we performed two sets of experiments. In the first set, cap analogs were added to RRL along with luciferase-encoding reporter mRNA followed by a protein activity (luminescence) readout after 1 h, whereas in the second set cap analogs were additionally preincubated in RRL for 1 h prior to addition of mRNA. Based on previously reported findings, we expected that in the second experimental setup, cap analogs susceptible to DcpS would lose their inhibitory potency, whereas compounds resistant to DcpS would remain similarly active.
The ability of the N7-benzyl cap analogues to inhibit cap-dependent translation was assayed in a rabbit reticulocyte lysate (RRL) system. Two sets of experiments were performed. In both variants, in vitro translation reactions (10 μL total volume) contained a tested cap analog (inhibitor) and an in vitro transcribed, ARCA-capped mRNA encoding Gaussia luciferase at 1 μg/mL final concentration. In experimental variant A, cap analogues at concentrations in the range of 0 to 64 μM and mRNA were added to the reaction mixture at the same time. Reactions were incubated at 30 °C for 60 min and then stopped by freezing in liquid nitrogen. In experimental variant B, the cap analogues were added at concentrations in the range of 0 to 160 μM. Reactions were pre-incubated at 30 °C for 60 min prior to addition of mRNA; after addition of mRNA incubation was continuous at 30 °C for 60 min and then stopped by freezing in liquid nitrogen. To detect luminescence from Gaussia luciferase, 50 μL of 10 ng/mL h-coelenterazine (NanoLight, Norman, OK, USA) in PBS was added to 10 μL of RRL and the luminescence was measured with a Synergy H1 (BioTek, Winooski, VT, USA) microplate reader.

[4] = RRL, cap analog and mRNA added at the same time (no pre-incubation), 60 min, 30 °C, read-out: Translation Inhibition IC50
[5] = cap analog incubated in RRL for 1 h prior to adding mRNA, read-out: Translation Inhibition IC50 (value in brackets) (converted)

eIF4E, sequence (P63073 whole entry): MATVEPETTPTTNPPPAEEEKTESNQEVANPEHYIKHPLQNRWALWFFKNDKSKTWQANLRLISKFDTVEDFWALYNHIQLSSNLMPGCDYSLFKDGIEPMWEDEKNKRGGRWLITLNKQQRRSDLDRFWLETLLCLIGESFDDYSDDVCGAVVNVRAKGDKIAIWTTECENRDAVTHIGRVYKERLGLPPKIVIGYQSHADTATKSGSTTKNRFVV

| Structure (SMILES) | EC50 [1] [nM] | Kd [1] [nM] | susceptibility to hDcpS (in words) [2] | hDcpS Assay: fraction of the cap remaining after 1 h incubation with DcpS [2] | IC50 [3, 4] [nM] | IC50 [3, 5] [nM] | conversion after 1 h of incubation with hDcpS [2] |
| --- | --- | --- | --- | --- | --- | --- | --- |
| Nc1nc(O)c2c(n1)n([C@@H]1O[C@H](COP(=O)(O)OP(=O)([O-])OP(=O)(O)OC[C@H]3O[C@@H](n4cnc5c(=O)[nH]c(N)nc54)[C@H](O)[C@@H]3O)[C@@H](O)[C@H]1O)c[n+]2Cc1ccc(C(F)(F)F)cc1 [1l, 4-CF3-Bn^7GpppG] | 590 ± 40 | 194 ± 17 | Lower susceptibility to hydrolysis | 0.87 | 9700 ± 2000 | 40000 | – |
| Nc1nc(O)c2c(n1)n([C@@H]1O[C@H](COP(=O)(O)OP(=O)([O-])OP(=O)(O)OC[C@H]3O[C@@H](n4cnc5c(=O)[nH]c(N)nc54)[C@H](O)[C@@H]3O)[C@@H](O)[C@H]1O)c[n+]2Cc1ccc(Cl)cc1 [1h, 4-Cl-Bn^7GpppG] | 340 ± 140 | 102 ± 53 | – | 0.67 | 18700 ± 3000 | 18700 ± 3600 | ~70% |
| Nc1nc(O)c2c(n1)n([C@@H]1O[C@H](COP(=O)(O)OP(=O)([O-])OP(=O)(O)OC[C@H]3O[C@@H](n4cnc5c(=O)[nH]c(N)nc54)[C@H](O)[C@@H]3O)[C@@H](O)[C@H]1O)c[n+]2Cc1ccc(F)cc1 [1g, 4-F-Bn^7GpppG] | 240 ± 80 | 64 ± 31 | – | 0.76 | 6000 ± 900 | 21400 | ~70% |
| Cc1cccc(C[n+]2cn([C@@H]3O[C@H](COP(=O)(O)OP(=O)([O-])OP(=O)(O)OC[C@H]4O[C@@H](n5cnc6c(=O)[nH]c(N)nc65)[C@H](O)[C@@H]4O)[C@@H](O)[C@H]3O)c3nc(N)nc(O)c32)c1 [1c, 3-MeBn^7GpppG] | 670 ± 20 | 222 ± 8 | very slowly hydrolyzed | 0.84 | 6600 ± 800 | 8200 | – |
| Cn1c[n+]([C@@H]2O[C@H](COP(=O)(O)OP(=O)([O-])OP(=O)(O)OC[C@H]3O[C@@H](n4cnc5c(=O)[nH]c(N)nc54)[C@H](O)[C@@H]3O)[C@@H](O)[C@H]2O)c2nc(N)[nH]c(=O)c21 [m^7GpppG, reference compound] | 410 ± 10 | 127 ± 5 | – | 0.49 | 11400 ± 2400 | 30100 | approximately 50% |
| Nc1nc(O)c2c(n1)n([C@@H]1O[C@H](COP(=O)(O)OP(=O)([O-])OP(=O)(O)OC[C@H]3O[C@@H](n4cnc5c(=O)[nH]c(N)nc54)[C@H](O)[C@@H]3O)[C@@H](O)[C@H]1O)c[n+]2Cc1ccc([N+](=O)[O-])cc1 [1n, 4-NO2-Bn^7GpppG] | 520 ± 120 | 168 ± 43 | – | 0.75 | 28200 ± 7500 | – | ~70% |

Reference: paper PMC8623273, “Novel N7-Arylmethyl Substituted Dinucleotide mRNA 5′ cap Analogs: Synthesis and Evaluation as Modulators of Translation” (Pharmaceutics, 2021)
